Laboratory results: patent US12077503B2, “Substituted cyclic amides and their use as herbicides” (FMC CORPORATION, priority 2015, dated 2024)

Legend:
Assay type in all cases: in vivo
[1] = test system: ducksalad (Heteranthera limosa); assay: Test B flooded paddy test; conditions: Flood, 0 to 100 scale where 0 is no effect and 100 is complete control, 13 to 15 d
Method in brief: (§1)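 Plants at 2-leaf stage flooded to 3 cm above soil, with compounds applied directly to paddy water and that depth maintained. Plants kept in greenhouse 13–15 d. Visual rating versus controls on a 0 (no effect) to 100 (complete control) scale.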

[2] = test system: barnyardgrass (Echinochloa crus-galli); assay: Test B flooded paddy test; conditions: Flood, 0 to 100 scale where 0 is no effect and 100 is complete control, 13 to 15 d
Method in brief: as §1

[3] = test system: sedge, umbrella (small-flower umbrella sedge, Cyperus difformis); assay: Test B flooded paddy test; conditions: Flood, 0 to 100 scale where 0 is no effect and 100 is complete control, 13 to 15 d
Method in brief: as §1

rice (Oryra sativa) = assay: Test B flooded paddy test; conditions: Flood, 0 to 100 scale where 0 is no effect and 100 is complete control, 13 to 15 d
Method in brief: as §1

[4] = test system: barnyardgrass (Echinochloa crus-galli); assay: Test A postemergence
Method in brief: (§2)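 Preemergence directed soil spray on seeded pots, or postemergence application to plants 2–10 cm, one- to two-leaf. Solvent mixture non-phytotoxic, with surfactant. Scored ~10 d later, visually, 0–100 vs untreated.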

[5] = test system: Galium (catchweed bedstraw, Galium aparine); assay: Test A postemergence
Method in brief: as §2

[6] = test system: pigweed (Amaranthus retroflexus); assay: Test A postemergence
Method in brief: as §2

corn (Zea mays) = assay: Test A postemergence
Method in brief: as §2

Kochia (Kochia scoparia) [7] = assay: Test A postemergence
Method in brief: as §2

[8] = test system: giant foxtail (Setaria faberii); assay: Test A postemergence
Method in brief: as §2

[9] = test system: ryegrass, Italian (Italian ryegrass, Lolium multiflorum); assay: Test A postemergence
Method in brief: as §2

[10] = test system: ragweed (common ragweed, Ambrosia elatior); assay: Test A postemergence
Method in brief: as §2

[11] = test system: blackgrass (Alopecurus myosuroides); assay: Test A postemergence
Method in brief: as §2

[12] = test system: wheat (Triticum aestivum); assay: Test A postemergence
Method in brief: as §2

[13] = test system: barnyardgrass (Echinochloa crus-galli); assay: Test A preemergence; conditions: for Plant response rating, Barnyardgrass: 125 g ai/ha, preemergence, 0 to 100 scale (0 no effect, 100 complete control)
Method in brief: as §2

[14] = test system: pigweed (Amaranthus retroflexus); assay: Test A preemergence; conditions: for Plant response rating, Pigweed: 125 g ai/ha, preemergence, 0 to 100 scale (0 no effect, 100 complete control)
Kochia (Kochia scoparia) [15] = assay: Test A preemergence; conditions: for Plant response rating, Kochia: 125 g ai/ha, preemergence, 0 to 100 scale (0 no effect, 100 complete control)
Method in brief: as §2

[16] = test system: giant foxtail (Setaria faberii); assay: Test A preemergence; conditions: for Plant response rating, Foxtail, Giant: 125 g ai/ha, preemergence, 0 to 100 scale (0 no effect, 100 complete control)
Method in brief: as §2

[17] = test system: ryegrass, Italian (Italian ryegrass, Lolium multiflorum); assay: Test A preemergence; conditions: for Plant response rating, Ryegrass, Italian: 125 g ai/ha, preemergence, 0 to 100 scale (0 no effect, 100 complete control)
Method in brief: as §2

[18] = test system: ragweed (common ragweed, Ambrosia elatior); assay: Test A preemergence; conditions: for Plant response rating, Ragweed: 125 g ai/ha, preemergence, 0 to 100 scale (0 no effect, 100 complete control)
Method in brief: as §2

[19] = 125 g ai/ha, postemergence, visual injury rating on 0 to 100 scale (0 no effect, 100 complete control), approx. 10 d
[20] = 500 g ai/ha, postemergence, 0 to 100 scale, 0 no effect, 100 complete control
[21] = Preemergence, 500 g ai/ha, visual injury approx. 10 d
[22] = Postemergence, 125 g ai/ha, visual injury, 0 to 100 scale (0 no effect, 100 complete control), approx. 10 d
[23] = Preemergence, 500 g ai/ha, 0 is no effect, 100 is complete control

Cc1cccc(NC(=O)C2C(=O)NCC2c2cccc(OC(F)F)c2)c1F (stereo not drawn) [Compound 420]
80: Barnyardgrass plant response rating [4, 19] | Plant response rating, Foxtail, Giant [8, 20]
0: Plant response rating, Sedge, Umbrella ([3]; 500 g ai/ha) | Galium plant response rating [5, 19] | Plant response rating, Galium [5, 20] | Pigweed plant response rating [6, 19] | Plant response rating, Pigweed [6, 20] | Corn plant response rating (corn (Zea mays); [19]) | Plant response rating, Corn (corn (Zea mays); [20]) | Kochia plant response rating (Kochia (Kochia scoparia) [7]; [19]) | Plant response rating, Kochia (Kochia (Kochia scoparia) [7]; [20]) | Ryegrass, Italian plant response rating [9, 19] | Plant response rating, Ryegrass, Italian [9, 20] | Ragweed plant response rating [10, 19] | Plant response rating, Ragweed [10, 20] | Blackgrass plant response rating [11, 19] | Plant response rating, Blackgrass [11, 20] | Wheat plant response rating [12, 19] | Plant response rating, Wheat [12, 20] | Plant response rating, Pigweed [14] | Plant response rating, Kochia (Kochia (Kochia scoparia) [15]) | Plant response rating, Ryegrass, Italian [17] | Ryegrass, Italian plant response rating (0 to 100 scale, 0 is no effect, 100 is complete control) [17, 21] | Plant response rating, Ragweed [18] | Ragweed plant response rating (0 to 100 scale, 0 is no effect, 100 is complete control) [18, 21]
90: Plant response rating, Barnyardgrass [4, 20] | Barnyardgrass plant response rating (0 to 100 scale, 0 is no effect, 100 is complete control) [13, 21] | Plant response rating, Foxtail, Giant [16] | Foxtail, Giant plant response rating (0 to 100 scale, 0 is no effect, 100 is complete control) [16, 21]
70: Foxtail, Giant plant response rating [8, 19] | Plant response rating, Barnyardgrass [13]
30: Pigweed plant response rating (0 to 100 scale, 0 is no effect, 100 is complete control) [14, 21] | Kochia plant response rating (0 to 100 scale, 0 is no effect, 100 is complete control) (Kochia (Kochia scoparia) [15]; [21])
25: Plant response rating, Rice (rice (Oryra sativa); 500 g ai/ha)
65: Plant response rating, Barnyardgrass ([2]; 500 g ai/ha)
85: Plant response rating, Ducksalad ([1]; 500 g ai/ha)

Cc1ccc(C2CNC(=O)C2C(=O)Nc2ccc(F)cc2F)cc1F (racemic) [Compound 370]
0: Plant response rating, Rice (rice (Oryra sativa); 250 g ai/ha) | Plant response rating, Pigweed [6, 20] | Plant response rating, Pigweed [6, 22] | Plant response rating, Corn (corn (Zea mays); [22]) | Plant response rating, Kochia (Kochia (Kochia scoparia) [7]; [20]) | Plant response rating, Kochia (Kochia (Kochia scoparia) [7]; [22]) | Plant response rating, Ryegrass, Italian [9, 22] | Plant response rating, Ragweed [10, 22] | Plant response rating, Blackgrass [11, 22] | Plant response rating, Wheat [12, 22] | Plant response rating, Pigweed [14] | Pigweed plant response rating (0 to 100 scale) [14, 23] | Plant response rating, Kochia (Kochia (Kochia scoparia) [15]) | Plant response rating, Ryegrass, Italian [17] | Ryegrass, Italian plant response rating (0 to 100 scale) [17, 23] | Plant response rating, Ragweed [18]
40: Plant response rating, Foxtail, Giant [8, 22] | Plant response rating, Blackgrass [11, 20]
60: Plant response rating, Barnyardgrass ([2]; 250 g ai/ha) | Plant response rating, Galium [5, 20]
100: Plant response rating, Ducksalad ([1]; 250 g ai/ha)
30: Plant response rating, Sedge, Umbrella ([3]; 250 g ai/ha) | Kochia plant response rating (0 to 100 scale) (Kochia (Kochia scoparia) [15]; [23])
70: Plant response rating, Foxtail, Giant [8, 20]
20: Plant response rating, Galium [5, 22] | Plant response rating, Corn (corn (Zea mays); [20]) | Plant response rating, Ryegrass, Italian [9, 20] | Plant response rating, Wheat [12, 20] | Ragweed plant response rating (0 to 100 scale) [18, 23]
80: Plant response rating, Barnyardgrass [4, 22]
90: Plant response rating, Barnyardgrass [4, 20] | Plant response rating, Barnyardgrass [13] | Barnyardgrass plant response rating (0 to 100 scale) [13, 23] | Plant response rating, Foxtail, Giant [16] | Foxtail, Giant plant response rating (0 to 100 scale) [16, 23]
50: Plant response rating, Ragweed [10, 20]
